The record followed here is a melting point compilation (Tetko et al.; mined from patent text by program, amines drawn as free bases though some values may be those of a salt).

Non-standard residues stand in square brackets, D forms with d. Residues, ends and D or L forms follow the SMILES beside them. ξ: configuration not given here. *: point of attachment. Boc = CC(C)(C)OC(=O)*; ξA = CC(N)C(=O)O; NHNH2 = NN*

Consider `c1csc(-c2noc(COc3ccc(CCCn4ccnc4)cc3)n2)c1`, for which the melting point is 118 to 119 °C.

In turn, `CCOC(=O)c1cn(C2COC2)c2c(F)c(F)c(F)c(F)c2c1=O` gave a melting point of 110 to 113 °C.

Take `O=C(Cc1ccc(F)cc1)NC1CCN(Cc2ccc(Cl)c(Cl)c2)CC1`: the melting point is 144 to 147 °C.

`CC1=NNC(c2ccc3c(c2)Nc2nccnc2S3)=NN1` had a melting point of 233 to 235 °C.

The compound `COc1ccc(CC(O)C(=O)c2ccccc2)cc1` (configuration not stated) yielded a melting point of 100 °C.

For `COC(=O)C=Cc1[nH]c(=O)c2c(ccc3nc(Nc4c(Cl)cccc4Cl)n(C)c32)c1C`, the melting point is more than 300 °C.

With `O=c1c(-c2ccccc2)cc([N+](=O)[O-])c2n1CCc1ccsc1-2`, the melting point was 180 to 182 °C.

For `COC(=O)c1sccc1Nc1ccnc2c(Cl)cccc12`, the melting point was 226 °C.

`COc1ccc2c(c1)C(=O)C(Cc1c[nH]c3ccccc13)CO2` (configuration not stated) displayed a melting point of 121 to 123 °C.

As to `C=CCOc1ccc(OC(C(=O)C(C)(C)C)n2cncn2)cc1` (configuration not stated), the melting point stood at 66 °C.

Compound `CCCCOC(=O)c1ccc2nc(N)[nH]c2c1` showed a melting point of 183 to 185 °C.

With `O=Cc1cn(-c2c(Cl)cc(C(F)(F)F)cc2Cl)c2ccccc12`, the melting point lay in the range of 167 to 169 °C.

The compound `COc1ccc2c(c1)S(=O)(=O)c1ccccc1C(=O)N2` returned a melting point of 244 to 246 °C.

On to `COC(=O)C=Cc1cnc(SC)nc1NCc1ccc(OC)c(Cl)c1`, for which the melting point was in the range of 141 to 142 °C.

Regarding `CC(NC(=O)CNC(=O)CNC(=O)CNC(=O)OC(C)(C)C)C(=O)NCC(=O)NN` (configuration not stated) (Boc-GGG[ξA]G-NHNH2), the melting point lay in the range of 221 to 223 °C.

On to `O=[N+]([O-])c1cnc2ccccc2c1NCC12CCCN1CCC2`, for which the melting point lay within 155 to 158 °C.

`O=c1[nH]c(NCCCn2ccnc2)nc2c1ncn2C1CC(O)C(CO)O1` (configuration not stated) displayed a melting point of 245 to 247 °C.

Turning to `O=C(O)Cc1c(-c2ccccc2)n[nH]c1-c1ccccc1`, the melting point was 210 to 211 °C.

For the compound `N=C(NO)c1cc(Oc2ccc(Cl)cc2Cl)c(O)cc1Cl`, the melting point was 137 °C.

The compound `Cc1nc(NCc2ccccn2)n(C)c(=O)c1CCO` had a melting point of 245 °C.

The compound `O=[N+]([O-])C1CC=CCC1c1ccccc1` (configuration not stated) returned a melting point of 114 to 116 °C.

As to `O=[N+]([O-])c1ccc(/C=C/c2ccc(O)cc2)cc1`, the melting point turned out to be 210 °C.

Take `CN(C)c1ccccc1CSc1nc2ccccc2[nH]1`: the melting point is 167 to 170 °C.

`N#Cc1cc(CBr)ccc1Cl`: the melting point fell in the range of 55 to 58 °C.

Regarding `CC(C)(CO)c1cc(C#N)ccc1O`, the melting point is 129 to 130 °C.

In the case of `O=C1NC(=O)C(=Cc2cccc(OCc3ccccc3)c2)S1`, the melting point was 233 to 235 °C.

For `O=C(NCCO)c1cccc(-c2cccc3nc(Oc4cccc(C(F)(F)F)c4)sc23)c1`, the melting point fell in the range of 103 to 104 °C.

As to `CN(C)S(=O)(=O)c1cc(-n2c(=O)cc(C(F)(F)F)n(C)c2=O)ccc1Cl`, the melting point lay in the range of 194 to 196 °C.

`CCn1ncc2c3noc(-c4ccc(C)cc4)c3cnc21` showed a melting point of 221 to 222 °C.

As for `CNC(=O)c1cnn(-c2ccc(Br)cc2)c1C#N`, the melting point was in the range of 240 to 241 °C.

`CCOc1cc2c(cc1OC)C(c1ccc(C(=O)OC)cc1)=N[C@@H]1CCOC[C@H]21` gave a melting point of 141 to 143 °C.

With `O=C(/C=C/c1c[nH]cn1)Oc1ccc([N+](=O)[O-])cc1`, the melting point is 220 to 222 °C.

Turning to `CC1OC(=O)C(C)C(NC(=O)OCc2ccccc2)C1C(=O)OCc1ccccc1` (configuration not stated), the melting point is 110 to 112 °C.

The compound `Cn1nc(-c2cccc(-n3ncc4cc(C(C)(C)C)cc(F)c4c3=O)c2CO)cc(Nc2cnc(CNC3CCC3)cn2)c1=O` returned a melting point of 163 to 167 °C.

Regarding `O=C(O)C=Cc1ccc(-c2ccc3ncnc(Nc4ccc(OCc5cccc(F)c5)c(Cl)c4)c3c2)s1`, the melting point was 252 °C.

In the case of `CC1(C)C(=O)Nc2cc(-c3nc4ccc(Cl)cc4[nH]3)ccc21`, the melting point was in the range of 287 to 289 °C.

Turning to `CCNC(CC)c1ccc(Cl)c2nc3n(c12)CCCN3c1ccc(Cl)cc1Cl` (configuration not stated), the melting point lay within 124 to 127 °C.

The compound `Cc1ccc2c(c1)C(CCO)N(c1cccc([N+](=O)[O-])c1)N(C)C2=O` (configuration not stated) gave a melting point of 169 to 170 °C.

Compound `CCCCSc1cc(C(=O)OCC#N)cc(S(N)(=O)=O)c1Cc1ccccc1` returned a melting point of 112 to 114 °C.

Take `Cc1nn(-c2ccccc2)nc1C(=O)N1CCC2(CC1)CSC1=C(O2)c2ccccc2C(=O)C1=O`: the melting point was in the range of 275 to 280 °C.

The compound `Nc1ccccc1C(=O)NC(=O)Nc1ccc(Oc2ncc(Br)cn2)c(Cl)c1` showed a melting point of 196 to 200 °C.

On to `O=Cc1ccc(OCc2cccc(Cl)c2)cc1`, for which the melting point was 51 to 54 °C.

Consider `C#CCn1nc(-c2ccc(Cl)cc2)n(CC)c1=O`, for which the melting point was in the range of 115 to 119 °C.

`COc1nc(Br)c(C)nc1NS(=O)(=O)c1cccc(Cl)c1Cl` had a melting point of 146 to 148 °C.

Compound `Oc1ccc(-c2nc3cc(O)cc(Br)c3o2)cc1` yielded a melting point of 139 to 141 °C.

Compound `CC[C@@H](NC(=O)N1CC(=O)NC[C@@H](Cc2cc(Cl)ccc2OC)C1=O)c1cncc(C(=O)O)c1` registered a melting point of 138 to 140 °C.

`O=c1[nH]ncc(N2CCN(C34CC5CC(CC(C5)C3)C4)CC2)c1Cl` gave a melting point of 292 to 294 °C.

`N#Cc1cc(Cl)ccc1NC(=O)C(F)(F)F` displayed a melting point of 105 to 107 °C.

Regarding `O=C(O)c1ccc2c(c1)Sc1ccccc1NC2=O`, the melting point fell in the range of 362 to 364 °C.

Turning to `C=CCN1C2CCC1C1CCC2N1C(c1ccc(C(=O)N2CCCCC2)cc1)c1cccc(OC)c1` (configuration not stated), the melting point is 134 to 136 °C.

In turn, `COc1cccc2c(=O)c3c(O)cc(OCC4CS4)cc3oc12` (configuration not stated) registered a melting point of 187 °C.

For the compound `COCCc1nc2c(N)nc3ccccc3c2n1CCCCCCCCNC(=O)Nc1ccccc1`, the melting point was in the range of 136 to 142 °C.

`COC(=O)C(Cc1ccc(OCCc2nc(-c3ccccc3)oc2C)cc1)C(=O)N(C)C` (configuration not stated): the melting point fell in the range of 114 to 115 °C.

For the compound `NC(=O)c1ccnc(-c2ccc(Oc3ccc(Cl)cc3F)cc2)n1`, the melting point was in the range of 198 to 200 °C.

As for `O=C(O)Cc1ccc(OCc2ccc(Cl)cc2C(=O)O)cc1`, the melting point was 205 to 208 °C.

Consider `C=CCC(O)c1c(-c2ccc(F)cc2)nc(N(C)S(C)(=O)=O)nc1C(C)C` (configuration not stated), for which the melting point amounted to 126 °C.

In turn, `Cc1ccccc1NC(=O)Nc1ccc(CC(=O)N2CCN(C(C)C(=O)O)C(=O)C2Cc2ccccc2)cc1` (configuration not stated) gave a melting point of 103 to 105 °C.

`Nc1ccn(CC2CC2)c(=O)n1` came in with a melting point of 264 to 266 °C.

Compound `COC(=O)C1=C(C)NC(C(=N)N)=C(C(=O)OC(C)C)C1c1ccccc1[N+](=O)[O-]` (configuration not stated) gave a melting point of 203 °C.

On to `CN1CC=C(c2c[nH]c3ccc(NC(=N)c4ccco4)cc23)CC1`, for which the melting point was 212 to 215 °C.

For `CCCC(=O)Oc1ccc2sc(S(N)(=O)=O)nc2c1`, the melting point is 132 °C.

Turning to `Cc1cc(-c2nc3ccccc3c(=O)n2-c2ccc(F)cc2)cc(C)c1OCCO`, the melting point was in the range of 95 to 97 °C.

For `O=C1C=C(c2ccc(Cl)cc2)C(=O)O1`, the melting point fell in the range of 144 to 145 °C.

`CN(c1cccc2cc(C3=NCC(CN4CCS(=O)CC4)S3)[nH]c12)S(=O)(=O)c1cccs1` (configuration not stated) returned a melting point of 204 °C.

As for `CCOC(=O)C1=C(C)NC(COC(C)=O)=C(C(=O)OCC)C1c1ccccc1Cl` (configuration not stated), the melting point is 98 °C.

In the case of `O=C(CC1CCN(Cc2ccccc2)CC1)c1ccc(O)cc1`, the melting point was 197 to 198 °C.

The compound `CCCNc1ncc2c(=O)[nH]c(-c3ccccc3OCCC)nc2n1` gave a melting point of 185 to 187 °C.

`O=C(CC1C(=O)CCc2ccccc21)c1ccccc1` (configuration not stated) yielded a melting point of 48 to 52 °C.

As for `CCCCNc1c(C#N)cnc2cc(F)c(OC)cc12`, the melting point lay in the range of 155 to 156 °C.

For the compound `CNCC(=O)NC(=O)N(CCCl)N=O`, the melting point was in the range of 86 to 88 °C.

Turning to `CS(=O)(=O)c1ccc(-n2nc(CNC(=O)NC34CC5CC(CC(C5)C3)C4)cc2-c2ccccc2)cc1`, the melting point was in the range of 150 to 155 °C.

`COc1cc(COc2nn(-c3ccccc3)cc2/C=C/c2cnco2)ccc1OCc1nc(-c2ccco2)oc1C`: the melting point was in the range of 137 to 138 °C.

With `O=C(NCCO)c1cccc(-c2ccc3ccn(Cc4ccc(Cl)cc4Cl)c3c2)c1`, the melting point fell in the range of 124 to 125 °C.

On to `CCCc1c(OCC(O)COc2ccc3c(=O)cc(C(=O)O)oc3c2CCC)ccc(C(C)=O)c1O` (configuration not stated), for which the melting point lay within 199 to 201 °C.

On to `Cc1ccc(S(=O)(=O)n2cc([C@@H]3C[C@H]3C=O)c3cc(C#N)ccc32)cc1` (relative stereo), for which the melting point lay in the range of 165 to 167 °C.

Compound `Clc1cc(Br)c2oc3c(Cl)c(Br)c(Cl)c(Br)c3c2c1` returned a melting point of 220 to 222 °C.

In the case of `COC(=O)/C=C/Oc1ccc(Oc2ccc(F)cc2F)c(NS(C)(=O)=O)c1`, the melting point lay within 98.5 to 98.9 °C.

In the case of `CCOc1cccc2cc(S(=O)(=O)Nc3ccc(OC)cc3)c(=O)oc12`, the melting point is 196 to 198 °C.

`CNCC1=C(n2ccccc2=O)c2cc([N+](=O)[O-])ccc2OC1(C)C` displayed a melting point of 128 °C.

With `COC(CN1CCN(c2cccc(-n3cnc4cc(C(C)=O)ccc43)c2)CC1)=NOC(C)C`, the melting point lay within 120 to 121 °C.

On to `O=C(NCCO)/C(=C/c1ccc(OC(F)F)cc1)NC(=O)c1ccc(OCCC2CC2)cc1`, for which the melting point is 153 to 155 °C.

`COC(=O)C1=C(C)NC(C)=C(C(=O)OCCN2CCN(S(=O)(=O)c3ccc(Cl)cc3)CC2)C1c1cccc([N+](=O)[O-])c1` (configuration not stated): the melting point is 97 to 105 °C.

`CCCCCCCc1noc(-c2ncn3c2CN(C)C(=O)c2c(Cl)cccc2-3)n1` came in with a melting point of 108 to 110 °C.

For the compound `COc1ccc(-c2coc3ccc(-c4nnc(SCc5cccc(C(F)(F)F)c5)o4)cc23)cc1`, the melting point was 119 to 120 °C.

Turning to `CCc1ccc(C(=O)O)c(N)c1`, the melting point is 117 to 120 °C.

Take `CCNC(=O)CC1CN=C(c2cc3cc(Oc4ccc(COC)nc4)cc(OC)c3[nH]2)S1` (configuration not stated): the melting point was 130 to 132 °C.

As to `COc1ccccc1N1CCN(CCCNC(=O)c2cccc3c(=O)c(C)c(C4CCC(C)CC4)oc23)CC1` (configuration not stated), the melting point came out at 166 °C.
